Converted amounts (≈) assume the structure as drawn. Where two headings read alike, the source gives them in different places.
Assays:
Rhizoctonia solani (Rs) = assay: Growth inhibition assay of fungal pathogens, Rs; assay type: cell-based; details: 48 h
Description: Compounds of the present invention were evaluated in a growth inhibition assay to determine the ability to control the growth of fungal pathogens, such as Botrtyis cinerea (Bc), Collectotrichum graminicola (Cg), Diplodia maydis (Dm), Fusarium moniliforme (Fm), Fusarium virguliforme (Fv), Phytophthora capsici (Pc), Rhizoctonia solani (Rs), and Septoria tritici (St).
Compounds to be tested were dissolved in DMSO at 2.5 mg/ml to produce compound stock solutions (“stocks”). Stocks were diluted with DMSO by a five-fold dilution in a 96-well stock plate, and two sets of final concentrations of 50, 10, and 2 ppm or 2, 0.4, and 0.08 ppm were obtained in vitro. A set of positive controls was also prepared, with various concentrations of Soraphen (2, 0.4, and 0.08 ppm), Metalaxyl (1.1, 0.22, and 0.04 ppm), and Metconazole (2, 0.4, and 0.08 ppm or 0.2, 0.04, and 0.008 ppm) after the five-fold dilutions. Negative controls on each plate included 2% DMSO, water, and a blank (media+2% DMSO).
Fungal spores were isolated from previously sub-cultured plates of Botrtyis cinerea (Bc), Collectotrichum graminicola (Cg), Diplodia maydis (Dm), Fusarium moniliforme (Fm), Fusarium virguliforme (Fv), Phytophthora capsici (Pc), and Septoria tritici (St). The isolated spores were diluted to individual concentrations with a 17% V8 liquid media. For Rhizoctonia solani (Rs) and Pythium irregulare, 1.5 mm mycelial plugs were used in place of spores and/4 Potato Dextrose Broth (PDB) was used for dilution. The spore concentrations and plug sizes were based on growth curves generated at 48 hours for each pathogen.
In a second 96-well plate, the spores or mycelial plugs, media, diluted compound solutions, and controls were combined. Once the compound was added, a true final concentration of compound in each well was measured by an OD600 reading, which adjusted for any compound precipitation that might have occurred in the well. Plate readings were repeated at both 24 and 48 hours. The blank negative control was used as a background subtraction. Additional visual ratings were performed at both 24 and 48 hours for checking on precipitation and confirming efficacy. Visual and OD600 ratings of the compounds at 48 hours were compared to the 2% DMSO negative control, and the percent of pathogen growth inhibition was determined based on those values.

human (hACC2) = human (hACC2) (Homo sapiens, UniProt O00763); assay: In vitro ACC inhibition assay (ADP-Glo), hACC2; assay type: biochemical; details: 5 nM ACC2, 20 μM ATP, 20 μM acetyl-CoA
Description: The detailed procedure is as follows. […] 10 μL ADP glo reagent was added. […] 20 μL kinase detection reagent was added.

[1] = mycelial plugs, growth inhibition at 48 hours vs 2% DMSO control, read-out: Concentration at 90% Inhibition Rs
[2] = mycelial plugs, growth inhibition vs 2% DMSO control at 48 hours, read-out: Concentration at 90% Inhibition Rs
[3] = read-out: Concentration at 90% Inhibition Rs, Rhizoctonia solani, mycelial plugs, growth inhibition at 48 hours vs 2% DMSO control
[4] = read-out: Concentration at 90% Inhibition Rs, Rhizoctonia solani, mycelial plugs, growth inhibition vs 2% DMSO control at 48 hours

Sequence of human (hACC2) (O00763 whole entry): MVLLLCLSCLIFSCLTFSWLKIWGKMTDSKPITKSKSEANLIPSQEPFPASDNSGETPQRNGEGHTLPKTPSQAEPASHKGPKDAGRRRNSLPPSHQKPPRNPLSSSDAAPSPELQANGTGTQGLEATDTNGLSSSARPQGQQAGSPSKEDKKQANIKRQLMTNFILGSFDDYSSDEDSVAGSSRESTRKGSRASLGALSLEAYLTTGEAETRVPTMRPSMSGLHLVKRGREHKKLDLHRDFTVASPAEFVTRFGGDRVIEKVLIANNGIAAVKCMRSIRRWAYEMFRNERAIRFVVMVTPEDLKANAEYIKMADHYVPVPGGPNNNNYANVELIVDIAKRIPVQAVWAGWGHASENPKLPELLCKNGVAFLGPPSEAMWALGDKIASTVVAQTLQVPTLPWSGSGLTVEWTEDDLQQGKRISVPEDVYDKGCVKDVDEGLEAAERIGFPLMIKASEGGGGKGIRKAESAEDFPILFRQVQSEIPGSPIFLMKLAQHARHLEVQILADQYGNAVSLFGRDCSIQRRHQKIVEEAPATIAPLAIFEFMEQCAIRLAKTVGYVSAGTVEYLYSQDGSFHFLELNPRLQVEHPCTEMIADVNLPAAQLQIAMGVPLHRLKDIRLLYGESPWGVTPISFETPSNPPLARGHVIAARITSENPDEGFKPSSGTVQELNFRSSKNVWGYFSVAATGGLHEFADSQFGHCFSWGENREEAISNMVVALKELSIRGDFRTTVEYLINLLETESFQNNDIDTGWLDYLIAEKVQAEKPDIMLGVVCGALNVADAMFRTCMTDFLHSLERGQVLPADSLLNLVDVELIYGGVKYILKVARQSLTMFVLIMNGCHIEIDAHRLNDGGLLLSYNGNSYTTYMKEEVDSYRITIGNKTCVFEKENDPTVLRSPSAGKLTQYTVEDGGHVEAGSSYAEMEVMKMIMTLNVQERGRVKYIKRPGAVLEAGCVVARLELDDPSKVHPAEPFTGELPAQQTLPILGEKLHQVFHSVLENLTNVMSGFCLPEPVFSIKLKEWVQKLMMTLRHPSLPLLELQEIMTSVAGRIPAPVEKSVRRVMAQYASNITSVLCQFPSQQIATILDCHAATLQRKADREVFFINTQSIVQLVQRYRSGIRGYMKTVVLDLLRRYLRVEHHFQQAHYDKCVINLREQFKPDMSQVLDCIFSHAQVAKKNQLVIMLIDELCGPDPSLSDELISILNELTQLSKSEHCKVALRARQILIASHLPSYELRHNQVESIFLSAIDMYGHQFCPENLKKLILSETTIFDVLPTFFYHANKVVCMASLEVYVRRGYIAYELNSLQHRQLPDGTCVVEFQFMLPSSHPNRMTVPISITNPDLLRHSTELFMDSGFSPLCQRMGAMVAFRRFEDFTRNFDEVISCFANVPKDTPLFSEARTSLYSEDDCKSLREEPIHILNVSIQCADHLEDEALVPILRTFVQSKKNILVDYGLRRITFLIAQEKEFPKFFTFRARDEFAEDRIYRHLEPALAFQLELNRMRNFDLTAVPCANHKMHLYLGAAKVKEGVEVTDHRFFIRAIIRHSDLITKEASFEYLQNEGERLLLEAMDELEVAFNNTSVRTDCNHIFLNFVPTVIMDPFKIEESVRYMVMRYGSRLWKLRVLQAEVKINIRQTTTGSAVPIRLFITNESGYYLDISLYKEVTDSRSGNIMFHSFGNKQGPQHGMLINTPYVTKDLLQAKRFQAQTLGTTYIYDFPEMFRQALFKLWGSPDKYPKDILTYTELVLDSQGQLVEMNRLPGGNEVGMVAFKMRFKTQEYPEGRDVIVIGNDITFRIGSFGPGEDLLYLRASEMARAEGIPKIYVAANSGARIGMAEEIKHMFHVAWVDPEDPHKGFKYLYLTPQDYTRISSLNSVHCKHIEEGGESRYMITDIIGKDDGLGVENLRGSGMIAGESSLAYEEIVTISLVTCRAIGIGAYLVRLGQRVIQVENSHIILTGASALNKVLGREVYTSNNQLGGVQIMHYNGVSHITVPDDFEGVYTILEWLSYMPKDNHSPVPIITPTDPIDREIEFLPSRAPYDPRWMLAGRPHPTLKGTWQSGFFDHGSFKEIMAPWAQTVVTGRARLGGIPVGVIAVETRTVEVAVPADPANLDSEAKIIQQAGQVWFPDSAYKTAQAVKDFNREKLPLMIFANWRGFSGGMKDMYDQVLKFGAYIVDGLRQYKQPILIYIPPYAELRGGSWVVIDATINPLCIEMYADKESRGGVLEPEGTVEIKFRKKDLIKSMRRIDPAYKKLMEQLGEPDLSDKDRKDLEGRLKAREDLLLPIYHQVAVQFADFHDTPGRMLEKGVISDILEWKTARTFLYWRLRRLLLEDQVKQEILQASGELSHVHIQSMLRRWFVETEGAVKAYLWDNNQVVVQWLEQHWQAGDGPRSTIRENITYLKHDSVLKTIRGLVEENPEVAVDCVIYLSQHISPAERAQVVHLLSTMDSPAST

Compound: COc1ccc(F)cc1[C@H](Cn1c(=O)n(C(C)(C)C(=O)N2CCCC2)c(=O)c2c(C)c(-n3nccn3)sc21)OCC(C)(C)O [Compound I-58, (R)-1-(2-(5-fluoro-2-methoxyphenyl)-2-(2-hydroxy-2-methylpropoxy)ethyl)-5-methyl-3-(2-methyl-1-oxo-1-(pyrrolidin-1-yl)propan-2-yl)-6-(2H-1,2,3-triazol-2-yl)thieno[2,3-d]pyrimidine-2,4(1H,3H)-dione]
- IC90 (Rhizoctonia solani (Rs); [1]): 0.4 µg/mL (≈ 0.636 µM)
- IC90 (Rhizoctonia solani (Rs); [2]): 0.4 µg/mL (≈ 0.636 µM)
- IC50 (human (hACC2); Table 2a): 10 to 40 nM
- IC50 (human (hACC2); Table 2b, additional results): 10 to 40 nM

Compound: COc1ccc(F)cc1[C@H](Cn1c(=O)n([C@H](C)C(=O)NC(C)C)c(=O)c2c(C)c(-n3nccn3)sc21)OC(C)C [Compound I-38, (R)-2-(1-((R)-2-(5-fluoro-2-methoxyphenyl)-2-isopropoxy-ethyl)-5-methyl-2,4-dioxo-6-(2H-1,2,3-triazol-2-yl)-1,4-dihydrothieno[2,3-d]pyrimidin-3(2H)-yl)-N-isopropylpropanamide]
- IC90 (Rhizoctonia solani (Rs); [3]): 0.4 µg/mL (≈ 0.698 µM)
- IC90 (Rhizoctonia solani (Rs); [4]): 0.4 µg/mL (≈ 0.698 µM)
- IC50 (human (hACC2); Table 2a): 5 to 10 nM
- IC50 (human (hACC2); Table 2b, additional results): 5 to 10 nM

Compound: COCCO[C@@H](Cn1c(=O)n(C(C)(C)C(=O)N2CCCC2)c(=O)c2c(C)c(-n3nccn3)sc21)c1cc(F)ccc1OC [Compound I-60, (R)-1-(2-(5-fluoro-2-methoxyphenyl)-2-(2-methoxy-ethoxy)ethyl)-5-methyl-3-(2-methyl-1-oxo-1-(pyrrolidin-1-yl)propan-2-yl)-6-(2H-1,2,3-triazol-2-yl)thieno[2,3-d]pyrimidine-2,4(1H,3H)-dione]
- IC90 (Rhizoctonia solani (Rs); [1]): > 50 µg/mL
- IC90 (Rhizoctonia solani (Rs); [2]): > 50 µg/mL
- IC50 (human (hACC2); Table 2a): 10 to 40 nM
- IC50 (human (hACC2); Table 2b, additional results): 10 to 40 nM

Compound: COc1ccc(F)cc1[C@H](Cn1c(=O)n(C(C)(C)C(=O)N2CCCC2)c(=O)c2c(C)c(-n3nccn3)sc21)OC1CCOCC1 [Compound I-25]
- IC90 (Rhizoctonia solani (Rs); [1]): 0.08 µg/mL (≈ 0.125 µM)
- IC90 (Rhizoctonia solani (Rs); [2]): 0.08 µg/mL (≈ 0.125 µM)
- IC50 (human (hACC2); Table 2a): 5 to 10 nM
- IC50 (human (hACC2); Table 2b, additional results): 5 to 10 nM

Compound: COc1ccccc1[C@H](Cn1c(=O)n(C(C)(C)C(=O)NCC(C)C)c(=O)c2c(C)c(-n3nccn3)sc21)OC1CCOCC1 [Compound I-13, (R)—N-isobutyl-2-(1-(2-(2-methoxyphenyl)-2-((tetrahydro-2H-pyran-4-yl)oxy)ethyl)-5-methyl-2,4-dioxo-6-(2H-1,2,3-triazol-2-yl)-1,4-dihydrothieno[2,3-d]pyrimidin-3(2H)-yl)-2-methylpropanamide]
- IC90 (Rhizoctonia solani (Rs); [1]): 0.08 µg/mL (≈ 0.128 µM)
- IC90 (Rhizoctonia solani (Rs); [2]): 0.08 µg/mL (≈ 0.128 µM)
- IC50 (human (hACC2); Table 2a): 5 to 10 nM
- IC50 (human (hACC2); Table 2b, additional results): 5 to 10 nM

Compound: COc1ccc(F)cc1[C@H](Cn1c(=O)n([C@@H](C)C(=O)NC(C)C)c(=O)c2c(C)c(-n3nccn3)sc21)OC(C)C [Compound I-37, (S)-2-(1-((R)-2-(5-fluoro-2-methoxyphenyl)-2-isopropoxyethyl)-5-methyl-2,4-dioxo-6-(2H-1,2,3-triazol-2-yl)-1,4-dihydrothieno[2,3-d]pyrimidin-3(2H)-yl)-N-isopropylpropanamide]
- IC90 (Rhizoctonia solani (Rs); [3]): 0.4 µg/mL (≈ 0.698 µM)
- IC90 (Rhizoctonia solani (Rs); [4]): 0.4 µg/mL (≈ 0.698 µM)
- IC50 (human (hACC2); Table 2a): 5 to 10 nM
- IC50 (human (hACC2); Table 2b, additional results): 5 to 10 nM

Compound: COc1ccc(F)cc1[C@H](Cn1c(=O)n(C(C)(C)C(=O)NC(C)C)c(=O)c2c(C)c(-n3nccn3)sc21)OCC(C)(C)O [Compound I-57, (R)-2-(1-(2-(5-fluoro-2-methoxyphenyl)-2-(2-hydroxy-2-methylpropoxy)ethyl)-5-methyl-2,4-dioxo-6-(2H-1,2,3-triazol-2-yl)-1,4-dihydro-thieno[2,3-d]pyrimidin-3(2H)-yl)-N-isopropyl-2-methylpropanamide]
- IC90 (Rhizoctonia solani (Rs); [3]): 0.4 µg/mL (≈ 0.649 µM)
- IC90 (Rhizoctonia solani (Rs); [4]): 0.4 µg/mL (≈ 0.649 µM)
- IC50 (human (hACC2); Table 2a): 10 to 40 nM
- IC50 (human (hACC2); Table 2b, additional results): 10 to 40 nM

Compound: COc1ccc(F)cc1[C@H](Cn1c(=O)n(C(C)(C)C(=O)NC(C)C)c(=O)c2c(C)c(-n3nccn3)sc21)OC1CCOCC1 [Compound I-23, (R)-2-(1-(2-(5-fluoro-2-methoxyphenyl)-2-((tetrahydro-2H-pyran-4-yl)oxy)ethyl)-5-methyl-2,4-dioxo-6-(2H-1,2,3-triazol-2-yl)-1,4-dihydro-thieno[2,3-d]pyrimidin-3(2H)-yl)-N-isopropyl-2-methylpropanamide]
- IC90 (Rhizoctonia solani (Rs); [3]): 0.08 µg/mL (≈ 0.127 µM)
- IC90 (Rhizoctonia solani (Rs); [4]): 0.08 µg/mL (≈ 0.127 µM)
- IC50 (human (hACC2); Table 2a): 5 to 10 nM
- IC50 (human (hACC2); Table 2b, additional results): 5 to 10 nM

Compound: COc1ccccc1[C@H](Cn1c(=O)n(C(C)(C)C(=O)NC(C)C)c(=O)c2c(C)c(-n3nccn3)sc21)OC1CCOCC1 [Compound I-16, (R)—N-isopropyl-2-(1-(2-(2-methoxyphenyl)-2-((tetrahydro-2H-pyran-4-yl)oxy)ethyl)-5-methyl-2,4-dioxo-6-(2H-1,2,3-triazol-2-yl)-1,4-dihydrothieno[2,3-d]pyrimidin-3(2H)-yl)-2-methylpropanamide]
- IC90 (Rhizoctonia solani (Rs); [3]): 0.4 µg/mL (≈ 0.655 µM)
- IC90 (Rhizoctonia solani (Rs); [4]): 0.4 µg/mL (≈ 0.655 µM)
- IC50 (human (hACC2); Table 2a): 5 to 10 nM
- IC50 (human (hACC2); Table 2b, additional results): 5 to 10 nM

Compound: COc1ccc(F)cc1[C@H](Cn1c(=O)n([C@@H](C)C(=O)N2CCCC2)c(=O)c2c(C)c(-n3nccn3)sc21)OC(C)C [Compound I-39, 1-((R)-2-(5-fluoro-2-methoxyphenyl)-2-isopropoxyethyl)-5-methyl-3-((S)-1-oxo-1-(pyrrolidin-1-yl)propan-2-yl)-6-(2H-1,2,3-triazol-2-yl)thieno[2,3-d]pyrimidine-2,4(1H,3H)-dione]
- IC90 (Rhizoctonia solani (Rs); [1]): 0.4 µg/mL (≈ 0.684 µM)
- IC90 (Rhizoctonia solani (Rs); [2]): 0.4 µg/mL (≈ 0.684 µM)
- IC50 (human (hACC2); Table 2a): 5 to 10 nM
- IC50 (human (hACC2); Table 2b, additional results): 1 to 5 nM

Compound: COCCOc1ccc(F)cc1[C@H](Cn1c(=O)n(C(C)(C)C(=O)NC(C)C)c(=O)c2c(C)c(-n3nccn3)sc21)OC1CCOCC1 [Compound I-61, (R)-2-(1-(2-(5-fluoro-2-(2-methoxyethoxy)phenyl)-2-((tetrahydro-2H-pyran-4-yl)oxy)ethyl)-5-methyl-2,4-dioxo-6-(2H-1,2,3-triazol-2-yl)-1,4-dihydrothieno[2,3-d]pyrimidin-3(2H)-yl)-N-isopropyl-2-methylpropanamide]
- IC90 (Rhizoctonia solani (Rs); [1]): 0.08 µg/mL (≈ 0.119 µM)
- IC90 (Rhizoctonia solani (Rs); [2]): 0.08 µg/mL (≈ 0.119 µM)
- IC50 (human (hACC2); Table 2a): 5 to 10 nM
- IC50 (human (hACC2); Table 2b, additional results): 5 to 10 nM

Compound: COc1ccccc1[C@H](Cn1c(=O)n(C(C)(C)C(=O)N2CCCC2)c(=O)c2c(C)c(-n3nccn3)sc21)OC1CCOCC1 [Compound I-18, (R)-1-(2-(2-methoxyphenyl)-2-((tetrahydro-2H-pyran-4-yl)oxy)ethyl)-5-methyl-3-(2-methyl-1-oxo-1-(pyrrolidin-1-yl)propan-2-yl)-6-(2H-1,2,3-triazol-2-yl)thieno[2,3-d]pyrimidine-2,4(1H,3H)-dione]
- IC90 (Rhizoctonia solani (Rs); [1]): 0.08 µg/mL (≈ 0.128 µM)
- IC90 (Rhizoctonia solani (Rs); [2]): 0.08 µg/mL (≈ 0.128 µM)
- IC50 (human (hACC2); Table 2a): 5 to 10 nM
- IC50 (human (hACC2); Table 2b, additional results): 5 to 10 nM

Compound: COc1ccccc1[C@H](Cn1c(=O)n(C(C)(C)C(=O)NC2CCCCC2)c(=O)c2c(C)c(-n3nccn3)sc21)OC1CCOCC1 [Compound I-21, (R)—N-cyclohexyl-2-(1-(2-(2-methoxyphenyl)-2-((tetra-hydro-2H-pyran-4-yl)oxy)ethyl)-5-methyl-2,4-dioxo-6-(2H-1,2,3-triazol-2-yl)-1,4-dihydrothieno[2,3-d]pyrimidin-3(2H)-yl)-2-methylpropanamide]
- IC90 (Rhizoctonia solani (Rs); [3]): 0.4 µg/mL (≈ 0.615 µM)
- IC90 (Rhizoctonia solani (Rs); [4]): 0.4 µg/mL (≈ 0.615 µM)
- IC50 (human (hACC2); Table 2a): 5 to 10 nM
- IC50 (human (hACC2); Table 2b, additional results): 5 to 10 nM

Compound: CCNC(=O)C(C)(C)n1c(=O)c2c(C)c(-n3nccn3)sc2n(C[C@H](OC2CCOCC2)c2cc(F)ccc2OC)c1=O [Compound I-22, (R)—N-ethyl-2-(1-(2-(5-fluoro-2-methoxyphenyl)-2-((tetrahydro-2H-pyran-4-yl)oxy)ethyl)-5-methyl-2,4-dioxo-6-(2H-1,2,3-triazol-2-yl)-1,4-dihydrothieno[2,3-d]pyrimidin-3(2H)-yl)-2-methylpropanamide]
- IC90 (Rhizoctonia solani (Rs); [1]): 0.4 µg/mL (≈ 0.651 µM)
- IC90 (Rhizoctonia solani (Rs); [2]): 0.4 µg/mL (≈ 0.651 µM)
- IC50 (human (hACC2); Table 2a): 5 to 10 nM
- IC50 (human (hACC2); Table 2b, additional results): 5 to 10 nM

Compound: COc1ccccc1[C@H](Cn1c(=O)n(C(C)(C)C(=O)NC2CCC2)c(=O)c2c(C)c(-n3nccn3)sc21)OC1CCOCC1 [Compound I-20, (R)—N-cyclobutyl-2-(1-(2-(2-methoxyphenyl)-2-((tetrahydro-2H-pyran-4-yl)oxy)ethyl)-5-methyl-2,4-dioxo-6-(2H-1,2,3-triazol-2-yl)-1,4-dihydrothieno[2,3-d]pyrimidin-3(2H)-yl)-2-methylpropanamide]
- IC90 (Rhizoctonia solani (Rs); [1]): 0.08 µg/mL (≈ 0.128 µM)
- IC90 (Rhizoctonia solani (Rs); [2]): 0.08 µg/mL (≈ 0.128 µM)
- IC50 (human (hACC2); Table 2a): 5 to 10 nM
- IC50 (human (hACC2); Table 2b, additional results): 5 to 10 nM
